Patent publication US20220282304A1, “SAME-SAMPLE ANTIBIOTIC SUSCEPTIBILITY TEST AND RELATED COMPOSITIONS, METHODS AND SYSTEMS” (CALIFORNIA INSTITUTE OF TECHNOLOGY, priority 2021, published 2022)

System: Escherichia coli K12
Experiment: Digital same-sample filtration AST at four exposure durations (Example 8)
Format: cell-based
Conditions: for Both (number of wells) / Empty (number of wells) / Extracellular only (number of wells) / Intracellular only (number of wells) / Intact (most likely number of cells) / Killed (most likely number of cells): Treated 1.0 μg ETP/mL; for Both (number of wells) / Empty (number of wells) / Extracellular only (number of wells) / Intracellular only (number of wells): 12 partitions, qPCR; for Intact (most likely number of cells) / Killed (most likely number of cells): assuming one cell per non-empty sample
Description: The inoculum was small enough that no detectable difference in the sample's optical density at 600 mm (OD600) was detectable by a spectrophotometer with a sensitivity of 0.01 absorbance units. After an incubation at 37° C., the media became turbid with an OD600 of 0.34 absorbance units after 3.08 hours of incubation.
In this experiment, the number and volume of sample partitions was restricted, for logistical reasons, to 96 partitions 10 μL in volume, specifically the wells of a 96-well plate. A goal was chosen of having a >98% chance of ending up with at least 48 empty partitions. When all partitions are the same volume, the following formula relates the expected number of empty partitions, the partition volume, and the density of cells.
N is the total number of partitions, n is the number of empty partitions, V is the partition volume, D is the density of cells, and t is a threshold probability chosen by the practitioner. In order to achieve digital sample partitioning with the available 96-well plate, each 10 μL sample of the specimen needed to contain between 0.02 and 2.5 cells on average. In this experiment, a density of 1 cells per sample were targeted. Due to systematic bias in the conversion of OD600 to cell density, the actual density achieved in the exposure was closer to 0.281 cells per sample. The batch culture specimen itself was diluted to a density of 28.1 CFU/mL (0.0281 cells/μL) to achieve the target cells/sample density.
To begin the AST protocol, the contrived clinical specimen (containing 28.1 CFU/mL) was physically partitioned into the 96 samples by transferring 10 μL of the specimen, in 96 separate transfers (actually […] with a multichannel pipette), to each well of a separable 96-well microtiter plate. Then, the entire plate was sealed with a RNase/DNase-free plastic, adhesive sealing membrane.
Each well of the 96-well microtiter plate contained 15 μL of Mueller-Hinton Broth (MHB) growth media, placed there before the specimen was partitioned. Half of the wells (48) contained 0 μg/mL of dissolved ETP antibiotic and served as reference condition antibiotic exposures. The other half of the wells contained 1.67 μg/mL of ETP (for a final concentration of 1.0 μg/mL) and served as 48 treated condition antibiotic exposures. The separable plate comprised 4 detachable sections bearing 3 columns and 8 rows of wells.
The treated and reference conditions were arranged so that each of the four groups of wells contained 12 treated and 12 reference conditions. In total, there would eventually be eight experimental conditions: 4 exposure durations of 0, 30, 60, and 120 min, each with 12 treated and 12 reference conditions.
Immediately after the specimen had been partitioned, one section (24 wells in total) of the separable 96-well plate was detached to serve as the 0-minute set of conditions. The rest of the separable 96-well plate was incubated at 37° C. Then, the following step was repeated for each time point of 0, 30, 60, and 120 minutes.
The entire volume of each antibiotic exposure was transferred to a Millipore® 96-well sterile polystyrene MultiScreenHTS® filter plate (Millipore-Sigma MSGVS2210). Each well of the filter plate contained a hydrophilic polyvinylidene fluoride (PVDF) filter membrane with a 0.22 μm pore size. A 96-well polypropylene microtiter plate was affixed to the bottom of the filter plate. The filter plate was promptly centrifuged at 2200 relative centrifugal force for 3 minutes to speed the passage of the antibiotic exposure sample through the filter and into 96-well microtiter plate. The collected fluid was called the “filtrate.” […]

C[C@@H](O)[C@H]1C(=O)N2C(C(=O)O)=C(S[C@@H]3CN[C@H](C(=O)Nc4cccc(C(=O)O)c4)C3)[C@H](C)[C@H]12 [ETP, ertapenem]
1: Intracellular only (number of wells) (exposure duration 30 min) | Intact (most likely number of cells) (exposure duration 30 min)
0: Both (number of wells) (exposure duration 0 min) | Extracellular only (number of wells) (exposure duration 0 min) | Intracellular only (number of wells) (exposure duration 0 min) | Intact (most likely number of cells) (exposure duration 0 min) | Killed (most likely number of cells) (exposure duration 0 min) | Both (number of wells) (exposure duration 30 min) | Both (number of wells) (exposure duration 60 min) | Intracellular only (number of wells) (exposure duration 60 min) | Intact (most likely number of cells) (exposure duration 60 min) | Both (number of wells) (exposure duration 120 min) | Intracellular only (number of wells) (exposure duration 120 min) | Intact (most likely number of cells) (exposure duration 120 min)
8: Empty (number of wells) (exposure duration 60 min) | Empty (number of wells) (exposure duration 120 min)
susceptible: susceptibility call (1.0 μg/mL ETP, overall p-value vs 0.005)
7: Empty (number of wells) (exposure duration 30 min)
12: Empty (number of wells) (exposure duration 0 min)
4: Extracellular only (number of wells) (exposure duration 30 min) | Killed (most likely number of cells) (exposure duration 30 min) | Extracellular only (number of wells) (exposure duration 60 min) | Killed (most likely number of cells) (exposure duration 60 min) | Extracellular only (number of wells) (exposure duration 120 min) | Killed (most likely number of cells) (exposure duration 120 min)
